The conditions of series [1]: simulated gastric fluid, pH 1.8.
For series [2] the following is noted: simulated intestinal fluid, pH 6.5.
The conditions of series [3]: pH 6.5.

A word on the fraction remaining: it is what is left of the initial amount, in per cent.

Regarding `CC[C@H](C)[C@@H]1NC(=O)[C@@H]2CCCN2C(=O)[C@H](CO)NC(=O)[C@H](CCSC)NC(=O)[C@H](C)NC(=O)[C@H](CO)NC(=O)[C@@H]2CSSC[C@H](NC(=O)CN)C(=O)N[C@@H](CSSC[C@@H](C(N)=O)NC1=O)C(=O)N[C@@H](CO)C(=O)N[C@@H](Cc1cnc[nH]1)C(=O)N1CCC[C@H]1C(=O)N[C@@H](C(C)C)C(=O)N2` [TxID, α-Conotoxin TxID], the amount remaining at 48 h in series [1] was 65.2 ± 2%. Moreover, in series [2], the fraction remaining at 0.5 h was 36.3 ± 2%. Besides, the “remaining amount in SIF after 2 h” value in series [3] was found to be 5.8 ± 2.0%.

These data come from publication PMC6627868 (Marine Drugs, 2019).
